Experimental data published in patent US12282013B2, “Ex vivo methods of screening for, and characterizing, cardiac therapeutics using preloaded cardiac tissues” (NOVOHEART INTERNATIONAL LIMITED, priority 2018, dated 2025).

How the values were obtained:
[1] = test system: human ventricular cardiac tissue strip (hvCTS); assay: hvCTS contractile force assay, unstretched, 1-Hz pacing; type: cell-based; settings: hvCTS paced at 1 Hz, increasing concentrations, responses described as blunted
Protocol: Seventy-two hours after dissociation, the hvCTS was made by mixing 1.3 million hESC-vCMs and 0.13 million human foreskin fibroblasts, together with 110 μl collagen gel comprising 1.67 mg/ml collagen and […] Matrigel. The cell mixture was then cast into a PDMS mold with two pillars and allowed to solidify for 2 hours in a 37° C., 5% CO2 incubator. Then, the cell mixture was fed with 7 ml DMEM medium (high glucose) supplemented with 10% newborn calf serum. Half of the medium was changed every 2 days.
On day 17 post-fabrication, human ventricular Cardiac Tissue Strips (hvCTS) were transferred from their molds and hooked to the force transducer unit and motor unit of an isolated muscle bath system (Aurora Scientific). The length of the hooked tissue was then adjusted to reach minimal developed tension, which was defined as the original length (Lo, or 0% Lmax) of the tissue. The hvCTS was then incubated in the bath at 37° C. for 10 minutes. Next, the hvCTS was electrically paced (at 5V/cm) at 1 Hz frequency, and stretched from 0 to 50% strain in 2.5% increments every 20 seconds. Recordings were made using Dynamic Muscle Control software (Aurora Scientific). The contractile parameters at each % strain, such as developed force, contractile rate and relaxation rate, were analyzed by Clampfit (Molecular Devices). The length with the maximum developed force was defined as Lmax. […]

[2] = test system: human ventricular cardiac organoid chamber (hvCOC); assay: hvCOC pressure-volume / developed pressure assay with preload; type: cell-based; settings: for area in the pressure-volume loops: absence of preload
Protocol: The hvCOC was made by a similar approach: Ten million hESC-vCMs and 1 million human foreskin fibroblasts were mixed with 1650 μl collagen gel (same relative composition as described above for hvCTS). The mixture was then cast into a 13-mm diameter cavity in a 2% agarose gel. A modified 6-Fr silicone balloon Foley catheter (Cook Medical) was then inflated and placed into the center of the bioreactor to form the inner boundary of the hvCOC. An 8 mm porous polyethylene ring (Fisher Scientific) and a 6 mm rubber ring were placed on top of the catheter to provide an hvCOC anchor. The polyethylene ring, rubber ring and the catheter were held by a metal tube with 3.9 mm outer diameter. The cell mixture was allowed to solidify for 2 hours in a 37° C., 5% CO2 incubator. Then, the solidified cell mixture was fed with 7 ml DMEM medium (high glucose) supplemented with 10% newborn calf serum. After 24 hours, the medium was aspirated and the agarose gel was removed. Twenty ml of medium was replenished and half of the medium was changed every 2 days. Further description of the hvCOC is provided in Example 5.
Human ventricular Cardiac Organoid Chamber (hvCOC) behavior was measured on day 10 post-fabrication. First, the catheter was deflated and removed. Then, the culture medium was replaced by phenol red-free DMEM (with 25 mM glucose and 25 mM HEPES). Rubber tubing was then filled with medium and used to connect the metal tube of the hvCOC apparatus to a medium tank. The hvCOC was electrically paced at 1.5 Hz (5V/cm) and the pressure-volume change resulting from the paced contractions was recorded for 30 seconds. Pressure was measured by a pressure sensor (Millar) placed inside the hvCOC, and associated area change of the hvCOC was captured by high-speed camera (Allied Vision). The medium tank level was then adjusted from 0 mm (relative to medium level of that in the hvCOC bioreactor), to 2.5, 5 and 7.5 mm above the medium level (representing 0, 2.5, 5 and 7.5 mm H2O preload). The measurements at all 4 preloads (0, 2.5, 5 and 7.5 mm H2O) were then repeated at each dose (0.01 and 0.1 μM) of levosimendan after a 5-minute incubation period.

| Compound | contractile force [1] | increase in developed pressure ([2]; hvCOC, 5 mmH2O preload, 0.1 μM) | developed pressure, dose dependence ([2]; hvCOC, 7.5 mmH2O preload) | area in the pressure-volume loops ([2]; hvCOC) | developed pressure ([2]; hvCOC, no preload (0 mmH2O), 1 μM) | response of hvCOC (developed pressure) ([2]; preload increased to 2.5 or 5 mmH2O) |
| --- | --- | --- | --- | --- | --- | --- |
| C[C@@H]1CC(=O)NN=C1c1ccc(NN=C(C#N)C#N)cc1 [levosimendan] | trend of increasing contractile force | approximately 50% | did not show any significant dose-dependent increase | increase in area in the pressure-volume loops | no increase in developed pressure | greatly enhanced the response |
| CC(C)NCC(O)c1ccc(O)c(O)c1 (centres unmarked) [isoproterenol] | trend of increasing contractile force |  |  | increase in area in the pressure-volume loops |  |  |
